Source: patent publication US6489098B1, “Means and methods for monitoring nucleoside reverse transcriptase inhibitor antiretroviral therapy and guiding therapeutic decisions in the treatment of HIV/AIDS” (ViroLogic, Inc., priority 1998, dated 2002)
“Also recorded” adds a separate entry of the source.

How the values were obtained:
[1] = system: HIV-1 RT mutant resistance test vector Q151M-RTV; experiment: Phenotypic susceptibility assay, site directed RTV Q151M; type: cell-based; conditions: for effect on susceptibility (words): RTV with Q151M vs wild type RTV
Protocol: (§1) Resistance tests were carried out with resistance test vectors using two host cell types. Resistance test vector viral particles were produced by a first host cell (the resistance test vector host cell) that was prepared by transfecting a packaging host cell with the resistance test vector and the packaging expression vector. The resistance test vector viral particles were then used to infect a second host cell (the target host cell) in which the expression of the indicator gene is measured.
(§2) The resistance test vectors containing a functional luciferase gene cassette were constructed and host cells were transfected with the resistance test vector DNA. The resistant test vectors contained patient-derived reverse transcriptase and protease sequences that were either susceptible or resistant to the antiretroviral agents, such as nucleoside reverse transcriptase inhibitors, non-nucleoside reverse transcriptase inhibitors and protease inhibitors. The resistance test vector viral particles produced by transfecting the resistance test vector DNA into host cells, either in the presence or absence of protease inhibitors, were used to infect target host cells grown either in the absence of NRTI or NNRTI or In the presence of increasing concentrations of the drug. The amount of luciferase activIty produced in infected target host cells in the presence of drug was compared to the amount of luciferase produced in infected target host cells in the absence of drug. Drug resistance was measured as the amount of drug required to inhibit by 50% the luciferase activity detected in the absence of drug (Inhibitory concentration 50%, IC50). The IC50 values were determined by plotting percent drug inhibition vs. log 10 drug concentration.
(§3) Host cells were seeded in 10-cm-diameter dishes and were transfected several days after plating with resistance test vector plasmid DNA and the envelope expression vector. Transfections were performed using a calcium-phosphate precipitation procedure. The cell culture media containing the DNA precipitate was replaced with fresh medium, from one to 24 hours, after transfection. Cell culture media containing resistance test vector viral particles was harvested one to four days after transfection and was passed through a […] filter before being stored at −80° C. HIV capsid protein (p24) levels in the harvested cell culture media were determined by an EIA method as described by the manufacturer (SIAC; Frederick, Md.). Before infection, target cells (293 and 293/T) were plated in cell culture media. Control infections were performed using cell culture media from mock transfections (no DNA) or transfections containing the resistance test vector plasmid DNA without the envelope expression plasmid. One to three or more days after infectIon the media was removed and cell lysis buffer (Promega) was added to each well. Cell lysates were assayed for luciferase activity (FIG. 3). The inhibitory effect of the drug was determined using the following equation:
% luciferase inhibition=1−(RLUluc[drug]÷RLUluc)×100 […]
(§4) Genotypic changes that are observed to correlate with changes in phenotypic patterns of drug susceptibility are evaluated by construction of resistance test vectors containing the specific mutation on a defined, wild-type (drug susceptible) genetic background. […]

[2] = system: HIV-1 RT mutant resistance test vector M41L+A62V+T69SSA+M184V+T215Y; experiment: Phenotypic susceptibility assay, site directed RTV M41L+A62V+T69SSA+M184V+T215Y; type: cell-based; conditions: for Average fold reduction in susceptibility: RTV with 41 + 62 + 69 + 184 + 215, 2 replicates; for effect on susceptibility (words): RTV with M41L+A62V+T69SSA+M184V+T215Y, addition of M184V to the 4 mutations
Protocol: as §1, §2, §3
(§5) % luciferase inhibition=1−(RLUluc[drug]÷RLUluc)×100
(§6) where RLUluc [drug] is the relative light unit of luciferase activity in infected cells in the presence of drug and RLUluc is the Relative Light Unit of luciferase activity in infected cells in the absence of drug. IC50 values were obtained from the sigmoidal curves that were generated from the data by plotting the percent inhibition of luciferase activity vs. the log 10 drug concentration. The drug inhibition curves are shown in (FIG. 3).
as §4, with “background. Mutations may be incorporated alone and/or in combination with other known drug resistance mutations that are thought to modulate the susceptibility of HIV to a certain drug or class of drugs.” for “background.”

[3] = system: HIV-1 RT mutant resistance test vector 41 + 69 + 184 + 215; experiment: Phenotypic susceptibility assay, site directed RTV 41 + 69 + 184 + 215; type: cell-based; conditions: RTV with 41 + 69 + 184 + 215; 2 replicates
Protocol: as §1, §2, §3, §5, §6
as §4, with “background. Mutations may be incorporated alone and/or in combination with other known drug resistance mutations that are thought to modulate the susceptibility of HIV to a certain drug or class of drugs.” for “background.”

[4] = system: patient RTV-136, RTV-240, RTV-955 and RTV-960 (A62V, V75I, F77L, F116Y, Q151M); experiment: Phenotypic susceptibility assay, patient isolates with multi-NRTI resistance mutations; type: cell-based, HIV-1; conditions: for susceptibility compared to wild-type control RTV: patient RTV pools with MDR mutations
Protocol: In these experiments patient-derived segment(s) corresponding to the HIV protease and reverse transcriptase coding regions were either patient-derived segments amplified by the reverse transcription-polymerase chain reaction method (RT-PCR) using viral RNA isolated from viral particles present in the serum of HIV-infected individuals or were mutants of wild type HIV-1 made by site directed mutagenesis of a parental clone of resistance test vector DNA. Isolation of viral RNA was performed using standard procedures (e.g. RNAgents Total RNA Isolation System, Promega, Madison Wis. or RNAzol, Tel-Test, Friendswood, Tex.). The RT-PCR protocol was divided into two steps. A retroviral reverse transcriptase [e.g. Moloney MuLV reverse transcriptase (Roche Molecular Systems, Inc., Branchburg, N.J.), or avian myeloblastosis virus (AMV) reverse transcriptase, (Boehringer Mannheim, Indianapolis, Ind.)] was used to copy viral RNA into cDNA. The cDNA was then amplified using a thermostable DNA polymerase [e.g. Taq (Roche Molecular Systems, Inc., Branchburg, N.J.), Tth (Roche Molecular Systems, Inc., Branchburg, N.J.), PrimeZyme (isolated from Thermus brockianus, Biometra, Gottingen, Germany)] or a combination of thermostable polymerases as described for the performance of “long PCR” (Barnes, W. M., (1994) Proc. Natl. Acad. Sci, USA 91, 2216-2220) [e.g. Expand High Fidelity PCR System (Taq+Pwo), (Boehringer Mannheim. Indianapolis, Ind.) OR GeneAmp XL PCR kit (Tth+Vent), (Roche Molecular Systems, Inc., Branchburg, N.J.)].
Resistance test vectors incorporating the “test” patient-derived segments were constructed as described in PCT International Application No. PCT/US97/01609, filed Jan. 29, 1997 using an amplified DNA product of 1.5 kB prepared by RT-PCR using viral RNA as a template and oligonucleotides PDSApa (1) and PDSAge (2) as primers, followed by digestion with ApaI and AgeI or the isoschizimer PINAI. To ensure that the plasmid DNA corresponding to the resultant resistance test vector comprises a representative sample of the HIV viral quasi-species present in the serum of a given patient, many (>100) independent E. coli transformants obtained in the construction of a given resistance test vector were pooled and used for the preparation of plasmid DNA.
as §1
as §2, with “The IC50 values were determined by plotting percent drug inhibition vs. log 10 drug concentration.” left out

SMILES	fold reduction in susceptibility ([1]; RTV with Q151M vs control RTV)	effect on susceptibility (words) [1]	Average fold reduction in susceptibility [2] [fold]	effect on susceptibility (words) [2]	Average fold reduction in susceptibility [3] [fold]	fold reduced susceptibility ([4]; four patient viruses with multi-NRTI resistance mutations (FIG. 4))	susceptibility compared to wild-type control RTV [4]
Cc1cn([C@H]2C=C[C@@H](CO)O2)c(=O)[nH]c1=O [d4T, stavudine]	approximately three-fold	less susceptible to d4T than the wild type control RTV; also recorded: reduced d4T and AZT susceptibility	3.98	no effect on the susceptibility to d4T; also recorded: did reduce d4T susceptibility more than the T69SSA mutation alone; also recorded: more susceptible	2.32	4-12 fold	decrease in susceptibility to d4T; also recorded: decreases in susceptibility
Nc1ccn([C@H]2CC[C@@H](CO)O2)c(=O)n1 [ddC, zalcitabine]		Significant changes in susceptibility	2.90	no effect on susceptibility to ddC or abacavir	3.48		decreases in susceptibility
Cc1cn([C@H]2C[C@H](N=[N+]=[N-])[C@@H](CO)O2)c(=O)[nH]c1=O [AZT, zidovudine]		Significant changes in susceptibility; also recorded: reduced d4T and AZT susceptibility	43.86	increase in the susceptibility to AZT; also recorded: suppressed the reduced AZT susceptibility; also recorded: more susceptible	5.87		decreases in susceptibility
Nc1nc(NC2CC2)c2ncn([C@H]3C=C[C@@H](CO)C3)c2n1 [ABC, abacavir]			11.73	no effect on susceptibility to ddC or abacavir	11.56		decreases in susceptibility
O=c1[nH]cnc2c1ncn2[C@H]1CC[C@@H](CO)O1 [ddI, didanosine]		Significant changes in susceptibility	2.55	more susceptible	2.28		decreases in susceptibility
